Patent publication US6727227B1, “Tetrapetide revealing geroprotective effect, pharmacological substance on its basis, and the method of its application” (Obschestvo S Ogranichennoi Otvetstven-Nostiju “Klinika …, priority 2002, dated 2004)
Marks after values point to notes of the source that are not given here. Residues, ends and D or L forms follow the SMILES beside them.

What was measured:
[1] = system: blood anti-oxidation defence indices; experiment: Blood anti-oxidation defence indices in patients with age-related pathology; type: in vivo; conditions: 10 μg intramuscularly daily for 10 days
Experimental: The studied pharmacological substance was administered to 14 patients (34 to 69 years old) with age-related pathology (hypertension disease, ischemic heart disease, chronic gastritis, non-insulin-dependent diabetes mellitus) and reduction of the anti-oxidation defence indices in blood.
The substance containing L-Ala-L-Glu-L-Asp-Gly tetrapeptide (SEQ ID NO: 1) was administered intramuscularly in the form of an injection solution in a single daily dose of 10 μg per injection for 10 days.

[2] = system: Drosophila melanogaster of LA strain; experiment: Content of lipid peroxide oxidation products (conjugated hydro-peroxides), LA strain; type: in vivo
Experimental: The impact produced by L-Ala-L-Glu-L-Asp-Gly tetrapeptide (SEQ ID NO: 1) on catalase activity, the content of the products of lipid peroxide oxidation (LPO), life span, and the ageing rate were studied in Drosophila melanogaster of LA strain.
L-Ala-L-Glu-L-Asp-Gly tetrapeptide (SEQ ID NO: 1) was applied in the larvae of the 3rd age in dose 0.00001% of the culture medium weight, which constituted approximately 0.015 mg/100 ml. Catalase activity was estimated by generally accepted methods in the homogenates of adult 14 days old flies. The experiment was carried out with a subsequent repetition.
Regression and dispersal analyses served as the basic technique of statistic processing. The authenticity of differences was confirmed by the method of minimal relevant diversity.

catalase = experiment: Catalase activity in homogenates of 7-day old flies of EA strain; type: in vivo, Drosophila melanogaster of EA strain
Experimental: (§1) Drosophila melanogaster of EA strain served as a model for studying the influence of L-Ala-L-Glu-L-Asp-Gly tetrapeptide (SEQ ID NO: 1) on catalase activity, tissue chemoluminescence, and life span.
(§2) L-Ala-L-Glu-L-Asp-Gly tetrapeptide (SEQ ID NO: 1) was applied in the larvae of the 3rd age in dose 0.00001% of the culture medium weight, which constituted approximately 0.015 mg/100 ml. Catalase activity and the intensity of chemoluminescence were estimated in the homogenates of adult 7-day old flies by generally accepted methods. The experiment was conducted with a subsequent 5 repetition.
(§3) Regression and dispersal analyses served as the basic technique of statistic processing.

gastric EC-cells = experiment: Extra-pineal synthesis of melatonin: enteroendocrine and serotonin-positive cell density in stomach after epiphysectomy; type: in vivo, male Wistar rats; conditions: for NEND/1 mm^2 (density of entero-endocrine cells), Fundal / NEND/1 mm^2 (density of entero-endocrine cells), Pyloric / Nser/1 mm^2 (density of serotonin-positive cells), Pyloric: 0.5 μg subcutaneously 10 days
Experimental: The research was carried out on male Wistar rats weighing 130-140 g. The total number of the animals (23) was divided into 5 groups. The 1st group (control) included intact animals. The animals of groups 2-5 underwent epiphysectomy (EE). In 3 weeks after the surgery (on the 21st day) the animals of the 2nd and 3rd groups were subcutaneously injected with sodium chloride in dose 0.5 ml for the next 10 days. The animals of groups 4 and 5 were administered with L-Ala-L-Glu-L-Asp-Gly tetrapeptide (SEQ ID NO: 1) in dose 0.5 μg according to the same scheme.
Slaughtering of the animals and isolation of their organs were conducted from 10 a.m. to 12 noon by daylight with the use of Nembutal anaesthesia (50 mg/kg). The animals of groups 1, 2 and 4 were slaughtered in 3 days upon the final drug administration (on the 33rd day after the operation and the onset of the experiment), while the animals of groups 3 and 5-in 12 days (on the 42nd day after epiphysectomy). Examined were the main organs of the diffuse neuroendocrine system (DNES): stomach, thyroid gland, and pancreas.
The surgery—epiphysectomy—was conducted under ether anaesthesia according to the devised technique. A 1-1.5 cm long incision was made along the central line of the head. Upon the uncovering of the scull cap an aperture was drilled over the sinus confluence point by means of a hollow 0.5 cm-diameter auger, which was manufactured of a metal tube especially for the experiment. The epiphysis was extracted by means of ophthalmic forceps through the opening in the cranium. The trepanation aperture was covered with an osteal fragment. The skin incision was sewn with silk threads.
Fragments of the extracted organs were fixed for 24 hours in Buen sour liquid for optic microscopy and according to Karnovsky for electron microscopy. Material dehydration and filling it in with paraffin for optic microscopy, as well as epone mixture for ultra-structural examination were prepared according to generally accepted techniques. Paraffin sections (7 μm) were placed on a microscope slide covered with a poly-L-lysine film (Sigma). Ultra-thin sections (100 nm) prepared on LKB-7A microtome (LKB) were contrasted with uranyl acetate and plumbum citrate.
Histological and immunohistochemical examinations were carried out with a Jenamed-2 microscope (Zeiss). Electron-microscopic examination was conducted with a electronic JEM-100S microscope (JEOL).
For staining hematoxyline-eosin was applied. The total population of APUD-cytes in the pyloric and fundal stomach sections was determined according to Grimelius' histochemical silvering method (25).
Immunohistochemical exposure of enterochromophine-cells (EC-cells) was conducted by applying uniclonic antibodies of mice to serotonin (Dako, 1:15 titre). The uniclonic antibodies were identified according to avidin-biotin-peroxidase (ABP) method (Vectastain kit) in order to measure immune serum globulins of mice.
The quantitative studies were carried out by means of computer analysis system of microscopic imprints (Imstar) with the use of Morphostar and Colquant (Imstar) applied licensed computer programmes, in accordance with the basic principles of stereology and morphometry (26).
The quantitative density of enteroendocrine (END) (NEND/1 mm^2) and serotonin-positive cells (Nser/1 mm^2) was estimated in 10 visual fields. The test area (S) constituted 5 mm^2.
For the statistical processing of the acquired data the non-parametric U-criterion by Mann/Whitney was applied.

[3] = system: Drosophila melanogaster of EA strain; experiment: Life span and ageing rate, EA strain; type: in vivo
Experimental: as §1
One-day old flies were placed in test tubes, 10 individuals of the same sex in each. Every 5 to 7 days they were transferred to a fresh medium, taking into account the number of deceased individuals. The average and maximal life spans were defined. The ageing rate was calculated by the parameters of Gomperz equation.
as §2, §3

[4] = system: Drosophila melanogaster of EA strain; experiment: Chemoluminescence intensity in homogenates of 7-day old flies of EA strain; type: in vivo
Experimental: as §1, §2, §3

[5] = epiphysectomised rats, 3rd day upon the end of drug administration
[6] = epiphysectomised rats, 12th day upon the end of drug administration

C[C@H](N)C(=O)N[C@@H](CCC(=O)O)C(=O)N[C@@H](CC(=O)O)C(=O)NCC(=O)O [L-Ala-L-Glu-L-Asp-Gly tetrapeptide, L-alanyl-L-glutamyl-L-aspartyl-glycine] (H-AEDG-OH)
Activity of superoxide dismutase, After treatment ([1]; before treatment 0.26): 0.61* conv. unit/mg of protein | Products of spontaneous lipid peroxide oxidation: Schiff bases, After treatment ([1]; before treatment 4.6 ± 0.3): 2.9 ± 0.2 μM/l | Products of spontaneous lipid peroxide oxidation: conjugated hydroperoxides, After treatment ([1]; before treatment 7.3 ± 0.6): 2.5 ± 0.2 μM/l | Content of conjugated hydro-peroxides ([2]; females): 1.290* nmole/g of tissue | Content of conjugated hydro-peroxides ([2]; males): 1.202 nmole/g of tissue | Specific activity of catalase (catalase; females): 82.78 ± 2.957 μmole H2O2/mg of protein per min. | Specific activity of catalase (catalase; males): 100.39 ± 3.807 μmole H2O2/mg of protein per min. | Extra-pineal synthesis of serotonin and melatonin in gastric EC-cells (gastric EC-cells; epiphysectomised rats): promotes the extra-pineal synthesis of serotonin and melatonin | NEND/1 mm^2 (density of entero-endocrine cells), Fundal (gastric EC-cells; [5]): 64 ± 5 /1 mm^2 | NEND/1 mm^2 (density of entero-endocrine cells), Pyloric (gastric EC-cells; [5]): 21 ± 1 /1 mm^2 | Nser/1 mm^2 (density of serotonin-positive cells), Pyloric (gastric EC-cells; [5]): 26 ± 2 /1 mm^2 | NEND/1 mm^2 (density of entero-endocrine cells), Fundal (gastric EC-cells; [6]): 47 ± 9 /1 mm^2 | NEND/1 mm^2 (density of entero-endocrine cells), Pyloric (gastric EC-cells; [6]): 19 ± 1 /1 mm^2 | Nser/1 mm^2 (density of serotonin-positive cells), Pyloric (gastric EC-cells; [6]): 26 ± 3 /1 mm^2 | Effect on the epiphysectomy impact on DNES cells (gastric EC-cells; within 3 days upon the end of administration, maintained for 12 days): complete suppression of the epiphysectomy impact | ALS ([3]; females, Experiment 1): 16.4 ± 1.68 days | G 10^2 ([3]; females, Experiment 1): 3.6 ± 0.61* days^−1 | LSmax ([3]; females, Experiment 1): 39 days | LnR0 ([3]; females, Experiment 1): -3.1 ± 0.21 day⁻¹ | ALS ([3]; females, Experiment 2): 16.7 ± 0.70 days | G 10^2 ([3]; females, Experiment 2): 4.2 ± 1.68 days^−1 | LSmax ([3]; females, Experiment 2): 41 days | LnR0 (Gompertz parameter) ([3]; females, Experiment 2): -3.6 ± 0.41 day⁻¹ | ALS ([3]; males, Experiment 1): 10.8 ± 1.09 days | G 10^2 ([3]; males, Experiment 1): 3.3 ± 2.25 days^−1 | LSmax ([3]; males, Experiment 1): 39 days | LnR0 (Gompertz parameter) ([3]; males, Experiment 1): -2.3 ± 0.26 day⁻¹ | ALS ([3]; males, Experiment 2): 17.4 ± 0.88 days | G 10^2 ([3]; males, Experiment 2): 4.7 ± 0.94* days^−1 | LSmax ([3]; males, Experiment 2): 45 days | LnR0 (Gompertz parameter) ([3]; males, Experiment 2): -3.0 ± 0.28 day⁻¹ | Chemoluminescence intensity ([4]; females): 4.61 ± 0.395 conv. unit/mg of protein per p | Chemoluminescence intensity ([4]; males): 4.93 ± 0.109 conv. unit/mg of protein per p
